Experimental data as given in ChEMBL document CHEMBL1201862, “PubChem BioAssay data set” (2004).
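Results reflect a 48-hour exposure of cells in 96-well plates to compound at five concentrations. Abbreviation: GI50, concentration required for 50% inhibition of growth.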 The source made the active and inactive calls. Cut-off read from the data, not from the text of the source: active = GI50 up to about 1.1 µM and inactive = higher.

Columns and labels:
Test in all cases: NCI anticancer screen, dose series, 48 h
A549 = system: A549
DU-145 = system: DU-145
HCC 2998 = system: HCC 2998
HCT-15 = system: HCT-15
K562 = system: K562
MCF7 = system: MCF7
MOLT-4 = system: MOLT-4
NCI-H23 = system: NCI-H23
NCI-H460 = system: NCI-H460
NCI-H522 = system: NCI-H522
OVCAR-3 = system: OVCAR-3
OVCAR-4 = system: OVCAR-4
OVCAR-8 = system: OVCAR-8
RPMI-8226 = system: RPMI-8226
SF-539 = system: SF-539
SW-620 = system: SW-620
UACC-257 = system: UACC-257
COLO 205 = system: COLO 205
SK-MEL-2 = system: SK-MEL-2
BT-549 = system: BT-549

Row | SMILES | GI50 (A549) | GI50 (DU-145) | GI50 (HCC 2998) | GI50 (HCT-15) | GI50 (K562) | GI50 (MCF7) | GI50 (MOLT-4) | GI50 (NCI-H23) | GI50 (NCI-H460) | GI50 (NCI-H522) | GI50 (OVCAR-3) | GI50 (OVCAR-4) | GI50 (OVCAR-8) | GI50 (RPMI-8226) | GI50 (SF-539) | GI50 (SW-620) | GI50 (UACC-257) | GI50 (COLO 205) | GI50 (SK-MEL-2) | GI50 (BT-549)
1 | O=[N+]([O-])c1cccnc1NCC1(CO)CCCC1 | 35.2 µM (inactive) | 36 µM (inactive) | 18.8 µM (inactive) | 18.5 µM | 18.5 µM (inactive) | 42.7 µM (inactive) | 15.6 µM (inactive) | 32.6 µM (inactive) | 22.5 µM (inactive) | 21.7 µM (inactive) | 19.8 µM (inactive) | 36.5 µM (inactive) | 19.4 µM (inactive) | 20.2 µM (inactive) | 21.6 µM (inactive) | 25.7 µM (inactive) | 20.6 µM (inactive) |  |  | 
2 | NCC(NC(=O)OCc1ccccc1)C(=O)O (stereo unspecified) | > 50 µM (inactive) |  | > 50 µM (inactive) | > 50 µM | > 50 µM (inactive) |  | > 50 µM (inactive) | > 50 µM (inactive) | > 50 µM (inactive) | > 50 µM (inactive) | > 50 µM (inactive) | > 50 µM (inactive) | > 50 µM (inactive) | > 50 µM (inactive) | > 50 µM (inactive) | > 50 µM (inactive) | > 50 µM (inactive) | > 50 µM (inactive) | > 50 µM (inactive) | 
3 | COC(=O)CCCc1ccc2c(c1)CC1(C2)Cc2cc3c(cc2C1)CCCC3 | 22.1 µM (inactive) |  | 26.7 µM (inactive) | 14 µM | 22.9 µM (inactive) | 44.6 µM (inactive) | 11.6 µM (inactive) | 61.9 µM (inactive) |  | 17.7 µM (inactive) | 27.5 µM (inactive) | 42.5 µM (inactive) | 44.5 µM (inactive) | 16 µM (inactive) | 37.8 µM (inactive) |  | 33.8 µM (inactive) | 20.5 µM (inactive) | 22.6 µM (inactive) | 
4 | Cc1ccc(Nc2[nH]c(=O)[nH]c(=O)c2C)cc1Cl | > 100 µM (inactive) |  | > 100 µM (inactive) | 91.6 µM | > 100 µM (inactive) | 19.5 µM (inactive) |  | > 100 µM (inactive) | > 100 µM (inactive) | > 100 µM (inactive) | 62.1 µM (inactive) | > 100 µM (inactive) | > 100 µM (inactive) | 58.5 µM (inactive) | > 100 µM (inactive) | > 100 µM (inactive) | > 100 µM (inactive) | > 100 µM (inactive) | > 100 µM (inactive) | > 100 µM (inactive)
5 | Cc1ccccc1N(CCC#N)C1=NN(C(=O)CC(=O)Nc2ccccc2)C(c2ccccc2)C1 (stereo unspecified) | > 100 µM (inactive) |  | > 100 µM (inactive) | > 100 µM | > 100 µM (inactive) |  | > 100 µM (inactive) | > 100 µM (inactive) | > 100 µM (inactive) | > 100 µM (inactive) | > 100 µM (inactive) | > 100 µM (inactive) | > 100 µM (inactive) | > 100 µM (inactive) | > 100 µM (inactive) | > 100 µM (inactive) | > 100 µM (inactive) | > 100 µM (inactive) | > 100 µM (inactive) | 
6 | COc1cc(CNc2nc3cc(C(F)(F)F)ccc3nc2C)cc(OC)c1OC | 28.4 µM (inactive) | 26.4 µM (inactive) | 18.3 µM (inactive) | 13.1 µM | 23 µM (inactive) | > 10 µM (inactive) | 10.9 µM (inactive) | 18.9 µM (inactive) | 16.3 µM (inactive) | 18.3 µM (inactive) | 25.2 µM (inactive) |  | 23.7 µM (inactive) | 11.7 µM (inactive) | 21.6 µM (inactive) | 17.1 µM (inactive) | 16.6 µM (inactive) | 12.8 µM (inactive) |  | 
7 | Cc1ccc(-c2cc(=O)c3cc(C)c(C)c(C(=O)O)c3o2)cc1 | > 100 µM (inactive) |  | > 100 µM (inactive) | > 100 µM | > 10 µM (inactive) |  | > 100 µM (inactive) | > 100 µM (inactive) | > 100 µM (inactive) | 24.3 µM (inactive) | > 100 µM (inactive) | > 100 µM (inactive) | > 100 µM (inactive) | > 100 µM (inactive) | 29.9 µM (inactive) | > 100 µM (inactive) | > 100 µM (inactive) | > 100 µM (inactive) | > 100 µM (inactive) | 
8 | Cc1ccc(/C=C2\CCCC(C(NO)c3ccc(C)cc3)C2=NO)cc1 (stereo unspecified) | 36.1 µM (inactive) |  | 16.8 µM (inactive) | 36.3 µM | 33.8 µM (inactive) |  | 19.1 µM (inactive) | 24 µM (inactive) | 24.7 µM (inactive) | 28.5 µM (inactive) | 16.7 µM (inactive) | 20 µM (inactive) | 53 µM (inactive) | 22.6 µM (inactive) | 39.6 µM (inactive) | 42.6 µM (inactive) | 29.6 µM (inactive) | 19.1 µM (inactive) | 69.2 µM (inactive) | 
9 | CC(C)(C)Nc1noc(=O)n1C(C)(C)C | > 100 µM (inactive) | > 100 µM (inactive) |  | > 100 µM | > 100 µM (inactive) | > 100 µM (inactive) | > 100 µM (inactive) | > 100 µM (inactive) | > 100 µM (inactive) | > 100 µM (inactive) | > 100 µM (inactive) | > 100 µM (inactive) | > 100 µM (inactive) | > 100 µM (inactive) | > 100 µM (inactive) | > 100 µM (inactive) | > 100 µM (inactive) | > 100 µM (inactive) | > 100 µM (inactive) | 
10 | N#CCCn1[nH]c(=O)c(Cl)c(Cl)c1=O | 22.7 µM (inactive) |  | 13.1 µM (inactive) | 10.4 µM | 6.12 µM (inactive) |  | 15.9 µM (inactive) | 15.2 µM (inactive) | 13.3 µM (inactive) | 20.2 µM (inactive) | 13.6 µM (inactive) | 18 µM (inactive) | 15.7 µM (inactive) | 11.5 µM (inactive) | 23.3 µM (inactive) | 17.8 µM (inactive) | 18.9 µM (inactive) | 22.2 µM (inactive) | 14.7 µM (inactive) | 
11 | CCCCN(CCCC)C(=O)C(=O)C(C)C(=O)CC (stereo unspecified) | > 100 µM (inactive) |  | > 100 µM (inactive) | > 100 µM | > 100 µM (inactive) |  | > 100 µM (inactive) | > 100 µM (inactive) | > 100 µM (inactive) | > 100 µM (inactive) | > 100 µM (inactive) | > 100 µM (inactive) | > 100 µM (inactive) | > 100 µM (inactive) | > 100 µM (inactive) | > 100 µM (inactive) | > 100 µM (inactive) | > 100 µM (inactive) | > 100 µM (inactive) | 
12 | CC(=O)OCC1OC(n2c(C)c(C(C)=O)c(-c3cccc4ccccc34)c(C#N)c2=S)C(OC(C)=O)C(OC(C)=O)C1OC(C)=O (stereo unspecified) | > 100 µM (inactive) | > 100 µM (inactive) | > 100 µM (inactive) | > 100 µM | > 100 µM (inactive) | > 100 µM (inactive) | > 100 µM (inactive) | > 100 µM (inactive) | > 100 µM (inactive) | > 100 µM (inactive) | > 100 µM (inactive) | > 100 µM (inactive) | > 100 µM (inactive) |  | > 100 µM (inactive) | > 100 µM (inactive) | > 100 µM (inactive) | > 100 µM (inactive) | > 100 µM (inactive) | 
13 | C=C(C)[C@H]1C=C[C@@H](OC(C)=O)[C@@]2(COC(C)=O)[C@H](OC(=O)CCC)[C@H]3[C@@H](OC(C)=O)[C@@H](C)C[C@]3(O)C(=O)[C@@](C)(OC(C)=O)[C@H]12 | 32.7 µM (inactive) |  | 27.1 µM (inactive) | 36.2 µM | 31.6 µM (inactive) | 42.3 µM (inactive) | 33.6 µM (inactive) | 39.3 µM (inactive) | 21.2 µM (inactive) | 56 µM (inactive) |  | 35.6 µM (inactive) | 29.7 µM (inactive) | 30.3 µM (inactive) |  | 55 µM (inactive) | 39.4 µM (inactive) | 22 µM (inactive) | 87.3 µM (inactive) | 58.2 µM (inactive)
14 | O=C(c1ccccc1)c1c(CNCc2ccccc2)n(C(=O)c2ccccc2)c2ccccc12 | 22.4 µM (inactive) |  | 86.9 µM (inactive) | 28.8 µM | 6.37 µM (inactive) |  | 7.43 µM (inactive) | 17.1 µM (inactive) | 14.5 µM (inactive) | 4.52 µM (inactive) | 15.4 µM (inactive) | 9.95 µM (inactive) | 37.4 µM (inactive) | 11.6 µM (inactive) | 69.3 µM (inactive) | 71.6 µM (inactive) | 29.6 µM (inactive) | 47 µM (inactive) | 63.4 µM (inactive) | 
15 | C[C@@]12[C@H]3CC[C@@H]1[C@H](O)C(=O)N2CC3 | > 100 µM (inactive) | > 100 µM (inactive) | > 100 µM (inactive) | > 100 µM | > 100 µM (inactive) | > 100 µM (inactive) | > 100 µM (inactive) | > 100 µM (inactive) | > 100 µM (inactive) | > 100 µM (inactive) | > 100 µM (inactive) | > 100 µM (inactive) | > 100 µM (inactive) | > 100 µM (inactive) | > 100 µM (inactive) | > 100 µM (inactive) | > 100 µM (inactive) | > 100 µM (inactive) | > 100 µM (inactive) | 
16 | O=c1ssc2ncccc12 | 14.9 µM (inactive) | 33.7 µM (inactive) | 19.8 µM (inactive) | 12.1 µM | 9.66 µM (inactive) | 13.8 µM (inactive) | 64 µM (inactive) | 28.8 µM (inactive) | 20.4 µM (inactive) | 7.8 µM (inactive) | 18.4 µM (inactive) |  |  | 12.9 µM (inactive) | 30.3 µM (inactive) | 19.7 µM (inactive) | 20.3 µM (inactive) | 17.9 µM (inactive) | 10.4 µM (inactive) | 
